From patent US9249125B2, “Pyrazole derivatives as p38 MAP inhibitors” (RESPIVERT LIMITED, priority 2012, dated 2016)

Tests used:
[1] = molecular target: p38 MAPKα (Homo sapiens (Human), UniProt Q16539); assay: Enzyme binding assay (Kinomescan) p38 MAPKα; details: read-out: % Inhibition for kinase binding at 500 nM p38 MAPKα
Description: (§1) The kinase enzyme binding activities of compounds disclosed herein were determined using a proprietary assay which measures active site-directed competition binding to an immobilized ligand (Fabian, M. A. et al., Nature Biotechnol., 2005, 23:329-336). These assays were conducted by DiscoverX (formerly Ambit; San Diego, Calif.). The percentage inhibition produced by incubation with a test compound is calculated relative to the non-inhibited control.

[2] = molecular target: p38 MAPKγ (Homo sapiens (Human), UniProt P53778); assay: Enzyme binding assay (Kinomescan) p38 MAPKγ; details: read-out: % Inhibition for kinase binding at 500 nM p38 MAPKγ
Description: (§2) These assays were conducted by DiscoverX (formerly Ambit; San Diego, Calif.). The percentage inhibition produced by incubation with a test compound is calculated relative to the non-inhibited control.

[3] = molecular target: HCK (Homo sapiens (Human), UniProt P08631); assay: Enzyme binding assay (Kinomescan) HCK; details: read-out: % Inhibition for kinase binding at 500 nM HCK
Description: as §1

[4] = molecular target: Syk (Homo sapiens (Human), UniProt P43405); assay: Enzyme binding assay (Kinomescan) Syk; details: read-out: % Inhibition for kinase binding at 500 nM Syk
Description: as §1

[5] = molecular target: B-Raf (Homo sapiens (Human), UniProt P15056); assay: Enzyme binding assay (Kinomescan) B-Raf; details: read-out: % Inhibition for kinase binding at 500 nM B-Raf
Description: as §2

[6] = molecular target: GSK3α (Homo sapiens (Human), UniProt P49840); assay: Enzyme binding assay (Kinomescan) GSK3α; details: read-out: % Inhibition for kinase binding at 500 nM GSK3α
Description: as §1

p38 MAPKγ, sequence (P53778 whole entry): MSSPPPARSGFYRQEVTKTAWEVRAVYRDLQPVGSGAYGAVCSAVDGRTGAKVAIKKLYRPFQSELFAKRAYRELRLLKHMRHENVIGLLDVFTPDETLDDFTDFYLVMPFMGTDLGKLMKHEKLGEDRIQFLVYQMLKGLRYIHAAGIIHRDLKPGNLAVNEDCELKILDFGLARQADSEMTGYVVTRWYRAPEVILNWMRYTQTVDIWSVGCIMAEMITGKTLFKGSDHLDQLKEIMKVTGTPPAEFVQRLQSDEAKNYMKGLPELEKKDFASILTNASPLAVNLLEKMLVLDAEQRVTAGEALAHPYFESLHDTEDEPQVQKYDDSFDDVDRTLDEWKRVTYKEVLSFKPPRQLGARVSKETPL
p38 MAPKα, sequence (Q16539 whole entry): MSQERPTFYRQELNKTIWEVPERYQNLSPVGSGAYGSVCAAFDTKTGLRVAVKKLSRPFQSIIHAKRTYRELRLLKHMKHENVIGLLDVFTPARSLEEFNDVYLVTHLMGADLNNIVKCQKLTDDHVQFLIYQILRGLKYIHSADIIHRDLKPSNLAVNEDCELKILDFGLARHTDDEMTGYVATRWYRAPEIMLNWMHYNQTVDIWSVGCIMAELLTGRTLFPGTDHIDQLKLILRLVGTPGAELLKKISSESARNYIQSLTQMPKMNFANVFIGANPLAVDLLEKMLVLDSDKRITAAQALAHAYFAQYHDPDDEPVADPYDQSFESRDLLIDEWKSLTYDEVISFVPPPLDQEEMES
GSK3α, sequence (P49840 whole entry): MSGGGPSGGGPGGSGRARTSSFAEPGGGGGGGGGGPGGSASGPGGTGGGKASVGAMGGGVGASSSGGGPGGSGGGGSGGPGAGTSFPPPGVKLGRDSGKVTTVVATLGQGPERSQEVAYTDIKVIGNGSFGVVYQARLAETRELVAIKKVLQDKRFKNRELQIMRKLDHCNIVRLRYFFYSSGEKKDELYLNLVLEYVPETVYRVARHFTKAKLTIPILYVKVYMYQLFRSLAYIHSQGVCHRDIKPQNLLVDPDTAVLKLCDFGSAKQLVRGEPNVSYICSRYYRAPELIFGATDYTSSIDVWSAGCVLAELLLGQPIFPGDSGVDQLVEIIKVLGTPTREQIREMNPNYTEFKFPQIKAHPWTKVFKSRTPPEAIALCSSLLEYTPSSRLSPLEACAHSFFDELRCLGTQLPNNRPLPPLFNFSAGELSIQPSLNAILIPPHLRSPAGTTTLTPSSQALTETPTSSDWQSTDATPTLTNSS
B-Raf, sequence (P15056 whole entry): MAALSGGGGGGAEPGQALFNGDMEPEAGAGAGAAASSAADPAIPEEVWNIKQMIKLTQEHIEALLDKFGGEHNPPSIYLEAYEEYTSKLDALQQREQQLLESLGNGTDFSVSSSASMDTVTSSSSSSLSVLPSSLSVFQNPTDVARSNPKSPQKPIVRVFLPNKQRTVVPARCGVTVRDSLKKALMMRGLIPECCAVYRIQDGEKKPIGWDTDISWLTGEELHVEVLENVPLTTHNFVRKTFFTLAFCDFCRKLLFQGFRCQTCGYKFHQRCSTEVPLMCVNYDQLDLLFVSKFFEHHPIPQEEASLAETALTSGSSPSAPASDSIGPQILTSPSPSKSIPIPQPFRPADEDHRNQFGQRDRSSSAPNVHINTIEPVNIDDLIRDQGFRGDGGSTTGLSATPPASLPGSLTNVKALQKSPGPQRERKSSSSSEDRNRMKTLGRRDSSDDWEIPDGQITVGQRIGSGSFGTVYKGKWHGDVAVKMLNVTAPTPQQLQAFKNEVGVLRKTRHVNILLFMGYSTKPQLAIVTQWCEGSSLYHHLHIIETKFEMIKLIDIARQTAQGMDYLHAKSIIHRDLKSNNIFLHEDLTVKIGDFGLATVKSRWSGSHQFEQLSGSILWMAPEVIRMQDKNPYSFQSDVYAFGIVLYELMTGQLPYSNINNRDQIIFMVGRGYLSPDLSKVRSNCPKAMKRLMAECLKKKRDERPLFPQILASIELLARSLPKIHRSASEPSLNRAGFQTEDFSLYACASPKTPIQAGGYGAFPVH
HCK, sequence (P08631 22-526): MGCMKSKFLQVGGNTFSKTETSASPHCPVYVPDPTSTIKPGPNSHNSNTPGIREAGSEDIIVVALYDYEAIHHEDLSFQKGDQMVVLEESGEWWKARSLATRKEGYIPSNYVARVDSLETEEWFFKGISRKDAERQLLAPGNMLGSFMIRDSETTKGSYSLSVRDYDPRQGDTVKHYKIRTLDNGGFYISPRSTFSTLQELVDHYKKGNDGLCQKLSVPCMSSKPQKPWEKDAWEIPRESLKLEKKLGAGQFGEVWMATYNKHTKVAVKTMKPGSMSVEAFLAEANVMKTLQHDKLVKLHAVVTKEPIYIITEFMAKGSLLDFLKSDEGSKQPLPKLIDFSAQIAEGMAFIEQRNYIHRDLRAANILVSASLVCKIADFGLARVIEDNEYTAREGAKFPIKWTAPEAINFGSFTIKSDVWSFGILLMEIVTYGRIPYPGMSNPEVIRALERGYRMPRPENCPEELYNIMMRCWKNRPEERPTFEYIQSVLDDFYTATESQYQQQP

CC(C)(C)c1cc(NC(=O)Nc2ccc(Oc3ccnc(Nc4ccc5[nH]ncc5c4)n3)c3ccccc23)n(-c2ccc(OCCN3CCOCC3)cc2)n1 [Example 12, 1-(4-((2-((1H-Indazol-5-yl)amino)pyrimidin-4-yl)oxy)naphthalen-1-yl)-3-(3-(tert-butyl)-1-(4-(2-morpholinoethoxy)phenyl)-1H-pyrazol-5-yl)urea]
inhibition at 0.5 µM [1]: 66% | inhibition at 0.5 µM [2]: 52% | inhibition at 0.5 µM [3]: 100% | inhibition at 0.5 µM [4]: 100% | inhibition at 0.5 µM [5]: 0% | inhibition at 0.5 µM [6]: 31%
